The nature of this data set: Chemical stability in buffer, UPLC purity. It is filed as physicochemical.

On to “Tza-SQGTFTSDYSKQLDEQRAQEFIEWLLATGPESGAPPPSC(VS-DO3A)-NH2 [SEQ ID NO 49]”, for which the “Purity after 7 days” value runs as follows: (pH 4.6, 4° C.) 100%; (pH 4.6, 25° C.) 97%; (pH 4.6, 40° C.) 92%; (pH 7.4, 4° C.) 98%; (pH 7.4, 25° C.) 90%; (pH 7.4, 40° C.) 64%. Moreover, the “Purity after 14 days” value reads like this: (pH 4.6, 4° C.) 99%; (pH 4.6, 25° C.) 97%; (pH 4.6, 40° C.) 91%; (pH 7.4, 4° C.) 96%; (pH 7.4, 25° C.) 84%; (pH 7.4, 40° C.) 53%.

For “Tza-S-Q-G-T-F-T-S-D-I-S-K-Q-Nle-ESRRAQEFIEWLLATGPESGAPPPSC(VS-DO3A(Ga))-NH2 [SEQ ID NO 36]”, the “Purity after 7 days” value came out at 100% (pH 4.6, 4° C.); 99% (pH 4.6, 25° C.); 94% (pH 4.6, 40° C.); 97% (pH 7.4, 4° C.); 81% (pH 7.4, 25° C.); 47% (pH 7.4, 40° C.). In addition, the “Purity after 14 days” value is, setting by setting: (pH 4.6, 4° C.) 99%; (pH 4.6, 25° C.) 97%; (pH 4.6, 40° C.) 84%; (pH 7.4, 4° C.) 94%; (pH 7.4, 25° C.) 67%; (pH 7.4, 40° C.) 33%.

Take “Tza-SQGTFTSDYSKQLESRRAQEFIEWLLAGGPESGAPPPSC(VS-DO3A(Ga))-NH2 [SEQ ID NO 8]”: the “Purity after 7 days” value (pH 4.6, 4° C.) is reported as 100%; the “Purity after 7 days” value (pH 4.6, 25° C.) came to 99%; the “Purity after 7 days” value (pH 4.6, 40° C.) is listed as 94%; the “Purity after 7 days” value (pH 7.4, 4° C.) is given as 97%; the “Purity after 7 days” value (pH 7.4, 25° C.) was 81%; the “Purity after 7 days” value (pH 7.4, 40° C.) amounted to 47%. Besides, the “Purity after 14 days” value is 99% (pH 4.6, 4° C.); 97% (pH 4.6, 25° C.); 84% (pH 4.6, 40° C.); 94% (pH 7.4, 4° C.); 67% (pH 7.4, 25° C.); 33% (pH 7.4, 40° C.).

With “Tza-S-Q-G-T-F-T-S-D-I-S-K-Q-Nle-ESRRAQEFIEWLLATGPESGAPPPSC(VS-DO3A)-NH2 [SEQ ID NO 35]”, the “Purity after 7 days” value amounted to 100% (pH 4.6, 4° C.); 97% (pH 4.6, 25° C.); 92% (pH 4.6, 40° C.); 98% (pH 7.4, 4° C.); 90% (pH 7.4, 25° C.); 64% (pH 7.4, 40° C.). Further, the “Purity after 14 days” value by setting is: (pH 4.6, 4° C.) 99%; (pH 4.6, 25° C.) 97%; (pH 4.6, 40° C.) 91%; (pH 7.4, 4° C.) 96%; (pH 7.4, 25° C.) 84%; (pH 7.4, 40° C.) 53%.

For “Tza-SQGTFTSDYSKQLESRRAQEFIEWLLAGGPESGAPPPSC(VS-DO3A)-NH2 [SEQ ID NO 6]”, the “Purity after 7 days” value amounted to 100% (pH 4.6, 4° C.); 97% (pH 4.6, 25° C.); 92% (pH 4.6, 40° C.); 98% (pH 7.4, 4° C.); 90% (pH 7.4, 25° C.); 64% (pH 7.4, 40° C.). For the same substance, the “Purity after 14 days” value is 99% (pH 4.6, 4° C.); 97% (pH 4.6, 25° C.); 91% (pH 4.6, 40° C.); 96% (pH 7.4, 4° C.); 84% (pH 7.4, 25° C.); 53% (pH 7.4, 40° C.).

Take “Tza-SQGTFTSDYSKQLDEQRAQEFIEWLLATGPESGAPPPSC(VS-DO3A(Ga))-NH2 [SEQ ID NO 50]”: the “Purity after 7 days” value is 100% (pH 4.6, 4° C.); 99% (pH 4.6, 25° C.); 94% (pH 4.6, 40° C.); 97% (pH 7.4, 4° C.); 81% (pH 7.4, 25° C.); 47% (pH 7.4, 40° C.). Further, the “Purity after 14 days” value (pH 4.6, 4° C.) was determined as 99%; the “Purity after 14 days” value (pH 4.6, 25° C.) amounted to 97%; the “Purity after 14 days” value (pH 4.6, 40° C.) came to 84%; the “Purity after 14 days” value (pH 7.4, 4° C.) came to 94%; the “Purity after 14 days” value (pH 7.4, 25° C.) amounted to 67%; the “Purity after 14 days” value (pH 7.4, 40° C.) was 33%.
